# Measurements as given in PubChem BioAssay AID1259407 (Chemical Carcinogenesis Research Information System (CCRIS), 2018).
# Calls of active or inactive are those of the source. How the calls were made is not given here.
# System: CCRIS mutagenicity, Ames/micronucleus/aberration tests
# Test: CCRIS mutagenicity studies
# [1] = Test System: AMES SALMONELLA TYPHIMURIUM, Strain/Indicator: TA98, Metabolic Activation: NONE, Method: STANDARD PLATE
# [2] = Test System: AMES SALMONELLA TYPHIMURIUM, Strain/Indicator: TA100, Metabolic Activation: NONE, Method: PREINCUBATION
# [3] = Test System: AMES SALMONELLA TYPHIMURIUM, Strain/Indicator: TA100, Metabolic Activation: NONE, Method: STANDARD PLATE
# [4] = Test System: AMES SALMONELLA TYPHIMURIUM, Strain/Indicator: TA100, Metabolic Activation: RAT, LIVER, S-9, AROCLOR 1254, Method: PREINCUBATION
structure (smiles),measurement,setting,value
Cc1ccco1,mutagenic call,"Test System: AMES SALMONELLA TYPHIMURIUM, Strain/Indicator: TA97, Metabolic Activation: NONE, Method: PREINCUBATION",inactive; negative
same,mutagenic call,"Test System: AMES SALMONELLA TYPHIMURIUM, Strain/Indicator: TA98, Metabolic Activation: HAMSTER, LIVER, S-9, AROCLOR 1254 (10%), Method: PREINCUBATION",inactive; negative
same,mutagenic call,"Test System: AMES SALMONELLA TYPHIMURIUM, Strain/Indicator: TA98, Metabolic Activation: HAMSTER, LIVER, S-9, AROCLOR 1254 (30%), Method: PREINCUBATION",inactive; negative
same,mutagenic call,"Test System: AMES SALMONELLA TYPHIMURIUM, Strain/Indicator: TA98, Metabolic Activation: NONE, Method: PREINCUBATION",inactive; negative
same,mutagenic call,[1],inactive; negative
same,mutagenic call,"Test System: AMES SALMONELLA TYPHIMURIUM, Strain/Indicator: TA98, Metabolic Activation: RAT, LIVER, S-9, AROCLOR 1254 (10%), Method: PREINCUBATION",inactive; negative
same,mutagenic call,"Test System: AMES SALMONELLA TYPHIMURIUM, Strain/Indicator: TA98, Metabolic Activation: RAT, LIVER, S-9, AROCLOR 1254 (30%), Method: PREINCUBATION",inactive; negative
same,mutagenic call,"Test System: AMES SALMONELLA TYPHIMURIUM, Strain/Indicator: TA98, Metabolic Activation: RAT, LIVER, S-9, AROCLOR 1254, Method: PREINCUBATION",inactive; negative
same,mutagenic call,"Test System: AMES SALMONELLA TYPHIMURIUM, Strain/Indicator: TA98, Metabolic Activation: S-9, Method: STANDARD PLATE",inactive; negative
same,mutagenic call,"Test System: AMES SALMONELLA TYPHIMURIUM, Strain/Indicator: TA100, Metabolic Activation: HAMSTER, LIVER, S-9, AROCLOR 1254 (10%), Method: PREINCUBATION",inactive; negative
same,mutagenic call,"Test System: AMES SALMONELLA TYPHIMURIUM, Strain/Indicator: TA100, Metabolic Activation: HAMSTER, LIVER, S-9, AROCLOR 1254 (30%), Method: PREINCUBATION",inactive; negative
same,mutagenic call,[2],inactive; negative
same,mutagenic call,[3],inactive; negative
same,mutagenic call,"Test System: AMES SALMONELLA TYPHIMURIUM, Strain/Indicator: TA100, Metabolic Activation: RAT, LIVER, S-9, AROCLOR 1254 (10%), Method: PREINCUBATION",inactive; negative
same,mutagenic call,"Test System: AMES SALMONELLA TYPHIMURIUM, Strain/Indicator: TA100, Metabolic Activation: RAT, LIVER, S-9, AROCLOR 1254 (30%), Method: PREINCUBATION",inactive; negative
same,mutagenic call,[4],inactive; negative
same,mutagenic call,"Test System: AMES SALMONELLA TYPHIMURIUM, Strain/Indicator: TA100, Metabolic Activation: S-9, Method: STANDARD PLATE",inactive; negative
same,mutagenic call,"Test System: AMES SALMONELLA TYPHIMURIUM, Strain/Indicator: TA102, Metabolic Activation: HAMSTER, LIVER, S-9, AROCLOR 1254 (10 OR 30%), Method: PREINCUBATION",inactive; negative
same,mutagenic call,"Test System: AMES SALMONELLA TYPHIMURIUM, Strain/Indicator: TA102, Metabolic Activation: NONE, Method: PREINCUBATION",inactive; negative
same,mutagenic call,"Test System: AMES SALMONELLA TYPHIMURIUM, Strain/Indicator: TA102, Metabolic Activation: RAT, LIVER, S-9, AROCLOR 1254 (10%), Method: PREINCUBATION",inactive; negative
same,mutagenic call,"Test System: AMES SALMONELLA TYPHIMURIUM, Strain/Indicator: TA102, Metabolic Activation: RAT, LIVER, S-9, AROCLOR 1254 (30%), Method: PREINCUBATION",inactive; negative
same,mutagenic call,"Test System: AMES SALMONELLA TYPHIMURIUM, Strain/Indicator: TA102, Metabolic Activation: RAT, LIVER, S-9, AROCLOR 1254, Method: PREINCUBATION",inactive; negative
same,mutagenic call,"Test System: AMES SALMONELLA TYPHIMURIUM, Strain/Indicator: TA104, Metabolic Activation: HAMSTER, LIVER, S-9, AROCLOR 1254 (5%), Method: PREINCUBATION",inactive; negative
same,mutagenic call,"Test System: AMES SALMONELLA TYPHIMURIUM, Strain/Indicator: TA104, Metabolic Activation: HAMSTER, LIVER, S-9, AROCLOR 1254 (10 OR 30%), Method: PREINCUBATION",inactive; negative
same,mutagenic call,"Test System: AMES SALMONELLA TYPHIMURIUM, Strain/Indicator: TA104, Metabolic Activation: NONE, Method: PREINCUBATION",inactive; negative
same,mutagenic call,"Test System: AMES SALMONELLA TYPHIMURIUM, Strain/Indicator: TA104, Metabolic Activation: RAT, LIVER, S-9, AROCLOR 1254 (5%), Method: PREINCUBATION",inactive; negative
same,mutagenic call,"Test System: AMES SALMONELLA TYPHIMURIUM, Strain/Indicator: TA104, Metabolic Activation: RAT, LIVER, S-9, AROCLOR 1254 (10 OR 30%), Method: PREINCUBATION",inactive; negative
same,mutagenic call,"Test System: AMES SALMONELLA TYPHIMURIUM, Strain/Indicator: TA1535, Metabolic Activation: HAMSTER, LIVER, S-9, AROCLOR 1254 (10 OR 30%), Method: PREINCUBATION",inactive; negative
same,mutagenic call,"Test System: AMES SALMONELLA TYPHIMURIUM, Strain/Indicator: TA1535, Metabolic Activation: NONE, Method: PREINCUBATION",inactive; negative
same,mutagenic call,"Test System: AMES SALMONELLA TYPHIMURIUM, Strain/Indicator: TA1535, Metabolic Activation: RAT, LIVER, S-9, AROCLOR 1254 (10 OR 30%), Method: PREINCUBATION",inactive; negative
CC(=O)Nc1ccc2ccc3cccc4ccc1c2c34,mutagenic call,"Test System: AMES SALMONELLA TYPHIMURIUM, Strain/Indicator: TA98(1,8-DNP6), Metabolic Activation: NONE, Method: STANDARD PLATE",inactive; negative
same,mutagenic call,"Test System: AMES SALMONELLA TYPHIMURIUM, Strain/Indicator: TA98(1,8-DNP6), Metabolic Activation: RAT, LIVER, S-9, AROCLOR 1254, Method: STANDARD PLATE",inactive; negative
same,mutagenic call,"Test System: AMES SALMONELLA TYPHIMURIUM, Strain/Indicator: TA98(NR), Metabolic Activation: NONE, Method: STANDARD PLATE",inactive; negative
same,mutagenic call,"Test System: AMES SALMONELLA TYPHIMURIUM, Strain/Indicator: TA98(NR), Metabolic Activation: RAT, LIVER, S-9, AROCLOR 1254, Method: STANDARD PLATE",active; positive
same,mutagenic call,[1],inactive; negative
same,mutagenic call,"Test System: AMES SALMONELLA TYPHIMURIUM, Strain/Indicator: TA98, Metabolic Activation: RAT, LIVER, S-9, AROCLOR 1254, Method: STANDARD PLATE",active; positive
CC(=O)Nc1ccc(Cc2ccc(NC(C)=O)c(Cl)c2)cc1Cl,mutagenic call,[2],inactive; negative
same,mutagenic call,"Test System: AMES SALMONELLA TYPHIMURIUM, Strain/Indicator: TA100, Metabolic Activation: RAT, LIVER, S-9, AROCLOR 1254 (50 µL), Method: PREINCUBATION",inactive; negative
same,mutagenic call,"Test System: AMES SALMONELLA TYPHIMURIUM, Strain/Indicator: TA100, Metabolic Activation: RAT, LIVER, S-9, AROCLOR 1254 (100 OR 200 µL), Method: PREINCUBATION",active; positive
C[N+](C)(CF)CCO,mutagenic call,"Test System: Mouse lymphoma, Strain/Indicator: L5178Y (tk+/tk-), Metabolic Activation: None, Method: Suspension/plate",inactive; negative
same,mutagenic call,"Test System: Mouse lymphoma, Strain/Indicator: L5178Y (tk+/tk-), Metabolic Activation: Rat, Liver, S-9, Aroclor 1254, Method: Suspension/plate",inactive; negative
CC(=O)O.CC(=O)O.[O]=[U]=[O],mutagenic call,"Test System: Chinese hamster ovary cells, Strain/Indicator: EM9 (HPRT)/6-Thioguanine, Metabolic Activation: None",active; positive
COC1=CC(=O)c2c(ncc3c2[nH]c2ccccc23)C1=O,mutagenic call,"Test System: AMES SALMONELLA TYPHIMURIUM, Strain/Indicator: TA97A, Metabolic Activation: NONE, Method: STANDARD PLATE",active; positive
same,mutagenic call,"Test System: AMES SALMONELLA TYPHIMURIUM, Strain/Indicator: TA97A, Metabolic Activation: RAT LIVER S-9, AROCLOR 1254, Method: STANDARD PLATE",active; positive
same,mutagenic call,[1],active; positive
same,mutagenic call,"Test System: AMES SALMONELLA TYPHIMURIUM, Strain/Indicator: TA98, Metabolic Activation: RAT LIVER S-9, AROCLOR 1254, Method: STANDARD PLATE",active; positive
same,mutagenic call,[3],active; positive
same,mutagenic call,"Test System: AMES SALMONELLA TYPHIMURIUM, Strain/Indicator: TA100, Metabolic Activation: RAT LIVER S-9, AROCLOR 1254, Method: STANDARD PLATE",active; positive
same,mutagenic call,"Test System: AMES SALMONELLA TYPHIMURIUM, Strain/Indicator: TA102, Metabolic Activation: NONE, Method: STANDARD PLATE",active; positive
same,mutagenic call,"Test System: AMES SALMONELLA TYPHIMURIUM, Strain/Indicator: TA102, Metabolic Activation: RAT LIVER S-9, AROCLOR 1254, Method: STANDARD PLATE",active; positive
Cc1cc2c(O)cccc2c2cc3ccccc3cc12,mutagenic call,[4],active; positive
ClCC(Br)CCl,mutagenic call,"Test System: AMES SALMONELLA TYPHIMURIUM, Strain/Indicator: TA100, Metabolic Activation: RAT, LIVER, MICROSOMES, PHENOBARBITAL, NADPH COFACTORS, Method: STANDARD PLATE",active; positive
same,mutagenic call,"Test System: AMES SALMONELLA TYPHIMURIUM, Strain/Indicator: TA100, Metabolic Activation: RAT, LIVER, MICROSOMES, PHENOBARBITAL, Method: STANDARD PLATE",inactive; negative
